For the test, the system named is PRKACA-PRKAR2A interaction (SmBiT-PRKACA / LgBiT-PRKAR2A), protein kinase A. Also on record: NanoLuc complementation counter-screen in cell extract, PRKACA with PRKAR2A, loss of luminescence, detects NanoLuc interference. To be noted: 0.5 h, 20 µM, inhibitor.
The mark [1] stands for this setting: counter-screen for NanoLuc interference.
[2] abbreviates: counter-screen for NanoLuc interference, Inh (PKA).

These results are taken from publication PMC9995496, “A screen for MeCP2-TBL1 interaction inhibitors using a luminescence-based assay” (Scientific Reports, 2023).

Counter-ions that a name gives are not always drawn. Like-named read-outs stand apart in the source and are kept apart here.

Turning to `COc1cc2c(cc1-c1c(C)noc1C)ncc1[nH]c(=O)n([C@H](C)c3ccccn3)c12` [UM0142279:01, I-BET151 (GSK1210151A)], under setting [1], the “Inh (PKA)” value was 10.84%. Turning to `CC(C)(C(=O)c1cccnc1)c1cccnc1` [UM0119067:03, Metyrapone], under setting [1], the “Inh (PKA)” value was determined as 1.858%.

On to `COc1ccc(-c2ccc3ncc4c(c3c2)n(-c2ccc(N3CCNCC3)c(C(F)(F)F)c2)c(=O)n4C)cn1` [UM0142062:01, NVP-BGT226], for which the “Inh (PKA)” value under setting [1] is 19.52%.

For the compound `NCC1(CC(=O)O)CCCCC1` [UM0142295:01, Gabapentin HCl], the “Inh (PKA)” value under setting [2] came out at 0.4431%. With `Cc1cc(Nc2cc(N3CCN(C)CC3)nc(/C=C/c3ccccc3)n2)n[nH]1` [UM0141725:01, ENMD-2076], the “Inh (PKA)” value under setting [2] turned out to be 15.95%.

Take `Cc1[nH]c(/C=C2\C(=O)Nc3ccc(S(=O)(=O)Cc4c(Cl)cccc4Cl)cc32)c(C)c1C(=O)N1CCC[C@@H]1CN1CCCC1` [UM0141454:01, PHA-665752]: under setting [1], the “Inh (PKA)” value amounted to 72.78%. On to `COc1cccc(Nc2c(C(N)=O)cnc3c(C)cc(S(=O)(=O)c4cccc(C(=O)N(C)C)c4)cc23)c1` [UM0141788:01, GSK256066], for which, under setting [1], the “Inh (PKA)” value is recorded as 11.7%. Still for that read-out and setting: then `Cc1c(O)cccc1C(=O)N[C@@H](CSc1ccccc1)[C@H](O)CN1C[C@H]2CCCC[C@H]2C[C@H]1C(=O)NC(C)(C)C` [UM0141590:01, Nelfinavir Mesylate], with 3.843%. Still for that read-out and setting: under `Cc1cc(O)c2c(c1)C(=O)c1cccc(O)c1C2=O` [UM0121046:03, Chrysophanol] stands 14.51%; under `C[C@]12CC[C@@H]3c4ccc(O)cc4CC[C@H]3[C@@H]1CC[C@@H]2OC(=O)CCC1CCCC1` [UM0142280:01, Estradiol Cypionate], 4.433%; under `NCc1c[nH]c(=S)n1[C@H]1CCc2c(F)cc(F)cc2C1` [UM0141789:01, Nepicastat (SYN-117) HCl], 5.542%. As to `Nc1nc(Nc2ccc(S(N)(=O)=O)cc2)nn1C(=O)c1c(F)cccc1F` [UM0141712:01, JNJ-7706621], the “Inh (PKA)” value under setting [1] is 15.42%.

On to `CCOC(=O)C1=C[C@@H](OC(CC)CC)[C@H](NC(C)=O)[C@@H](N)C1` [UM0141595:01, Oseltamivir], for which the “Inh (PKA)” value under setting [2] is on record as 0.436%.

Consider `COc1cc2ncnc(Sc3nnc(C)s3)c2cc1OC` [UM0142197:01, SKLB1002], for which the “Inh (PKA)” value under setting [1] was -0.2342%.

As for `CCOc1cc(CC(=O)N[C@@H](CC(C)C)c2ccccc2N2CCCCC2)ccc1C(=O)O` [UM0141879:01, Repaglinide], the “Inh (PKA)” value under setting [1] is given as 5.467%. For `COc1cc2nccc(Oc3ccc(NC(=O)Nc4ccc(F)cc4F)c(F)c3)c2cc1OC` [UM0131001:04, Ki8751], the “Inh (PKA)” value under setting [1] was determined as 5.997%. Consider `COc1cc(Nc2ncc(F)c(Nc3ccc4c(n3)N(COP(=O)(O)O)C(=O)C(C)(C)O4)n2)cc(OC)c1OC` [UM0142473:01, Fostamatinib (R788)], for which the “Inh (PKA)” value under setting [2] came out at 53.12%. With `Cc1coc2c1C(=O)C(=O)c1c-2ccc2c(C)cccc12` [UM0142857:01, Tanshinone I], the “Inh (PKA)” value under setting [1] came to 27.32%. With `CCn1c(-c2nonc2N)nc2c(C#CC(C)(C)O)ncc(OC[C@H]3CCCNC3)c21` [UM0141867:01, GSK690693], under setting [1], the “Inh (PKA)” value stood at 29.62%. For `Fc1cc(F)c2c(c1)[C@H]1C=CC[C@H]1C(c1cccnc1)N2` (mixture of isomers) [UM0142231:01, Golgicide A], the “Inh (PKA)” value under setting [1] was determined as 20.05%. With `O=P1(NCCCl)OCCCN1CCCl` (centres unmarked) [UM0118931:03, Ifosfamide], the “Inh (PKA)” value is listed as -0.3336%. Turning to `COCC[n+]1c2c(n(Cc3cnccn3)c1C)C(=O)c1ccccc1C2=O` [UM0141767:01, YM155], under setting [1], the “Inh (PKA)” value is listed as 0.9715%. Take `CCN1CCN(c2cc3c(cc2F)c(=O)c(C(=O)O)cn3C2CC2)CC1` [UM0132985:02, Enrofloxacin]: the “Inh (PKA)” value under setting [1] came out at 1.786%.

As for `CC#CC(=O)Nc1ccc2ncnc(Nc3cccc(Br)c3)c2c1` [UM0142687:01, CL-387785 (EKI-785)], the “Inh (PKA)” value under setting [1] worked out at 17.86%. As to `CNCC[C@H](Oc1cccc2ccccc12)c1cccs1` [UM0133232:02, Duloxetine HCl], under setting [1], the “Inh (PKA)” value came out at 23.56%. In the case of `C[C@@](Cc1ccc(O)c(O)c1)(NN)C(=O)O` [UM0119735:03, Carbidopa], the “Inh (PKA)” value under setting [1] amounted to 2.512%.

For the compound `CC(=O)SCC(=O)c1ccc(NS(=O)(=O)c2ccc(OCCCN(C)C)cc2)nc1` [UM0141844:01, KD 5170], under setting [1], the “Inh (PKA)” value is recorded as 2.048%. With `O=C(O)C(Cc1c[nH]c2ccccc12)N1C(=O)c2ccccc2C1=O` (centres unmarked) [UM0141426:01, RG 108], the “Inh (PKA)” value under setting [1] is on record as 1.344%. In the case of `CC(/C=C/C(=O)NO)=C\[C@@H](C)C(=O)c1ccc(N(C)C)cc1` [UM0128540:02, Trichostatin A (TSA)], the “Inh (PKA)” value under setting [1] is 3.519%. On to `C=CC(=O)Nc1cccc(Nc2nc(Nc3ccc(N4CCN(C(C)=O)CC4)cc3OC)ncc2C(F)(F)F)c1` [UM0141532:01, CO-1686 (AVL-301)], for which, under setting [1], the “Inh (PKA)” value came out at 17.5%. In the case of `N#Cc1ccc2[nH]c(O)c(-c3ccc(CN4CCOCC4)cn3)c2c1` [UM0142298:01, AZD1080], under setting [1], the “Inh (PKA)” value was determined as 15.47%. Consider `N[C@@H](CC(=O)N1CCn2c(nnc2C(F)(F)F)C1)Cc1cc(F)c(F)cc1F` [UM0141674:01, Sitagliptin phosphate monohydrate], for which, under setting [2], the “Inh (PKA)” value stood at 0.152%.

On to `COc1cc2c(NC3CCN(C4CCCCC4)CC3)nc(N3CCCN(C(C)C)CC3)nc2cc1OCCCN1CCCCC1` [UM0129939:02, UNC 0646], for which the “Inh (PKA)” value under setting [1] worked out at 0.2399%. In the case of `C[C@@H](O)[C@H]1C(=O)N2C(C(=O)[O-])=C(SC3Cn4cnc[n+]4C3)[C@H](C)[C@H]12` (some centres unmarked) [UM0141395:01, Biapenem], the “Inh (PKA)” value under setting [1] was found to be 2.946%.

Take `CN(C)c1ccc(C(=O)NCCCCCCC(=O)NO)cc1` [UM0141709:01, M344]: under setting [1], the “Inh (PKA)” value came out at 1.639%. For `Cc1cn([C@H]2C=C[C@@H](CO)O2)c(=O)[nH]c1=O` [UM0142454:01, Stavudine (d4T)], the “Inh (PKA)” value under setting [1] amounted to 0.5167%. For the compound `O=C(O)Cc1ccccc1Nc1c(Cl)cccc1Cl` [UM0118146:04, Diclofenac Sodium], the “Inh (PKA)” value under setting [2] was 5.073%. Take `Cc1ccc(Sc2ccccc2N2CCNCC2)c(C)c1` [UM0141466:01, Vortioxetine (Lu AA21004) HBr]: the “Inh (PKA)” value under setting [1] came to 18.25%. On the same count and under the same terms, under `CNCCc1ccccn1` [UM0132794:02, Betahistine 2HCl] stands 2.049%. As for `COc1cc2ncnc(Nc3ccc(O)cc3)c2cc1OC` [UM0141567:01, JANEX-1], the “Inh (PKA)” value under setting [1] was found to be 3.268%. For the compound `Cc1ccc(-c2ncc(Cl)cc2-c2ccc(S(C)(=O)=O)cc2)cn1` [UM0141550:01, Etoricoxib], the “Inh (PKA)” value under setting [1] came to 2.792%. Same read-out and setting: under `O=C(COc1ccc(Cl)cc1)N[C@H]1CC[C@H](NC(=O)COc2ccc(Cl)cc2)CC1` [UM0142547:01, ISRIB (trans-isomer)] stands 0.7821%; under `COC(=O)C[C@H](NC(=O)[C@H](C)NC(=O)[C@@H](NC(=O)[C@H](Cc1ccc(O)cc1)NC(=O)OCc1ccccc1)C(C)C)C(=O)CF` [UM0142151:01, Z-YVAD-FMK], 2.926%; under `Oc1ccc(OC2CCCCO2)cc1` (centres unmarked) [UM0142392:01, Deoxyarbutin], 1.229%.
